Patent publication US6921821B2, “Antagonists of melanin concentrating hormone receptor” (Abbott Laboratories, priority 2002, dated 2005)

Biological target: T1, murine MCHR (Mus musculus, UniProt Q8JZL2)
T1 construct: expressed in transfected cells; host or cells: HEK293
Test: Assay for release of intracellular calcium (FLIPR, Fluo-4), inhibition of MCH-induced Ca++ flux
Format: cell-based
Details: test compound at a dose of 10 μM, HEK293 cells expressing the murine MCHR, read-out: inhibition of MCH (MCH induced Ca++ flux / fluorescence)
Procedure: Assay for Release of Intracellular Calcium
Activation of the melanin concentrating hormone receptor (MCHR) by MCH induces the release of Ca^++ from intracellular stores. This intracellular calcium release is measured using a fluorometric imaging plate reader (FLIPR™, Molecular Devices Corp.) in conjunction with the Ca^++-sensitive dye Fluo-4. Release of Ca^++ from intracellular stores causes an increase in fluorescence of the dye that is proportional to Ca^++ concentration. Briefly, the assays are performed as follows. HEK293 cells expressing the murine MCHR are plated overnight at 50,000 cells/well in 96-well plates. The following day, culture medium is removed and replaced with 100 μl/well of D-PBS (+glucose and sodium pyruvate) containing 2.5 μM Fluo-4AM (Molecular Probes), 0.01% Pluronic F-127 and 2.5 mM probenecid. Cells are loaded with the Fluo-4 dye for at least one hour at room temp. After loading, the cells are washed gently to remove extracellular dye and 100 μl of D-PBS (+glucose and sodium pyruvate) is added to each well. Test compounds are prepared at 40 μM in 4% DMSO. The cell plate is placed in the FLIPR™ and 50 μl/well of test compound is delivered. The calcium signal is followed for 3 minutes to assay for potential agonist activity by the test compounds. Then 50 μl/well of 12 nM mouse MCH (in D-PBS containing 0.1% BSA) is added and the ligand-induced calcium signal is followed for an additional 3 minutes. Antagonist activity as determined by the test compounds ability to inhibit MCH induced Ca^++ flux is calculated as % inhibition as described by the following formula: % inhibition=[1−((fTC−fB)÷(fMCH−fB))]×100, where fTC=MCH-induced fluorescence in the presence of test compound; fMCH=MCH-induced fluorescence in the absence of test compound; and fB=Baseline fluorescence.
MCH (3 nM) usually elicits a response of 30,000-40,000 relative fluorescence units (RFU) with a baseline of about 1000 RFU. Fluo-4 fluorescence is measured at 488 nm, with an exposure of 0.40 sec. and F-stop=2.0 and the laser set at 0.40-0.60 W constant light output.

T1 sequence (Q8JZL2 whole entry): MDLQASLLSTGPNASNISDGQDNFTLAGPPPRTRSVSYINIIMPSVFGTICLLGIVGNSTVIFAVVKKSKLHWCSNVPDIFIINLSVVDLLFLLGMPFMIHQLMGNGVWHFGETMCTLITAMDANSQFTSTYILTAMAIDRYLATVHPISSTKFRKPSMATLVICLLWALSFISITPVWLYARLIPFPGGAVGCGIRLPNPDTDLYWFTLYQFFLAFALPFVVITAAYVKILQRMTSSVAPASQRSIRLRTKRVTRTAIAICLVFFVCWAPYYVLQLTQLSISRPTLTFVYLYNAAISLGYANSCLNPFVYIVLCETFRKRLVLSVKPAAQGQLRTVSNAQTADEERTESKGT

inhibition at 10 µM [%] | Compound
≥ 50 | CC(c1ccc2ncccc2c1)N1CCC(Nc2cc(=O)oc3ccc(Cl)cc23)CC1 (racemic) [II-106, 6-Chloro-4-[1-(1-quinolin-6-yl-ethyl)-piperidin-4-ylamino]-chromen-2-one]
≥ 50 | CC(=O)c1ccc(C(C)N2CCC(Nc3cc(=O)oc4ccc(Cl)cc34)CC2)cc1 (racemic) [II-116, 4-{1-[1-(4-acetylphenyl)-ethyl]-piperidin-4-ylamino}-6-chlorochromen-2-one]
≥ 50 | COc1ccc([C@@H](C)N2CCC(Nc3cc(=O)oc4ccc(Cl)cc34)CC2)cc1F (stereo in doubt) [II-45, 6-Chloro-4-{1-[1-(3-fluoro-4-methoxy-phenyl)-ethyl]-piperidin-4-ylamino}-chromen-2-one]
≥ 50 | COc1ccc2oc(=O)cc(N[C@H]3CCN(Cc4ccc5c(c4)OCO5)C[C@H]3C)c2c1 (stereo in doubt) [II-53, 4-(1-Benzo[1,3]dioxol-5-ylmethyl-3-methyl-piperidin-4-ylamino)-6-methoxy-chromen-2-one]
≥ 50 | COc1ccc2oc(=O)cc(N[C@@H]3CCN(Cc4ccc5c(c4)OCO5)C[C@H]3C)c2c1 (stereo in doubt) [II-72, 4-(1-Benzo[1,3]dioxol-5-ylmethyl-3-methyl-piperidin-4-ylamino)-6-methoxy-chromen-2-one]
≥ 50 | COc1ccc2c(c1)c(NC1CCN(C/C=C/c3ccccc3)CC1)cc(=O)n2C [Compound V-14, 6-Methoxy-1-methyl-4-[1-(3-phenyl-allyl)-piperidin-4-ylamino]-1H-quinolin-2-one]
≥ 50 | CCc1ccc2c(c1)c(NC1CCN(Cc3ccc4c(c3)OCO4)CC1)cc(=O)n2CC [Compound V-17, 4-(1-Benzo[1,3]dioxol-5-ylmethyl-piperidin-4-ylamino)-1,6-diethyl-1H-quinolin-2-one]
≥ 50 | CCc1ccc2c(c1)c(NC1CCN(C(C)c3ccc4c(c3)OCO4)CC1)cc(=O)n2CC (stereo not shown) [Compound V-18, 4-[1-(1-Benzo[1,3]dioxol-5-yl-ethyl)-piperidin-4-ylamino]-1,6-diethyl-1H-quinolin-2-one]
≥ 50 | O=c1cc(NC2CCN(Cc3ccc4c(c3)OCO4)CC2)c2cc(Cl)ccc2n1Cc1cc[n+]([O-])cc1 [Compound V-19, 4-(1-Benzo[1,3]dioxol-5-ylmethyl-piperidin-4-ylamino)-6-chloro-1-(1-oxy-pyridin-4-ylmethyl)-1H-quinolin-2-one]
≥ 50 | CCc1ccc2c(c1)c(NC1CCN(Cc3ccc4ccccc4c3)CC1)cc(=O)n2C [Compound V-20, 6-Ethyl-1-methyl-4-(1-naphthalen-2-ylmethyl-piperidin-4-ylamino)-1H-quinolin-2-one]
≥ 50 | Cc1ccc2c(c1)c(NC1CCN(Cc3ccc4ccccc4c3)CC1)cc(=O)n2C [Compound V-22, 1,6-Dimethyl-4-(1-naphthalen-2-ylmethyl-piperidin-4-ylamino)-1H-quinolin-2-one]
≥ 50 | N#Cc1c(NC2CCN(Cc3ccc4occc4c3)CC2)c2cc(Cl)ccc2[nH]c1=O [Compound V-23, 4-(1-Benzofuran-5-ylmethyl-piperidin-4-ylamino)-6-chloro-2-oxo-1,2-dihydro-quinoline-3-carbonitrile]
≥ 50 | CN(C)C(=O)c1c(NC2CCN(Cc3ccc4ccccc4c3)CC2)c2cc(Cl)ccc2n(C)c1=O [Compound V-24, 6-Chloro-1-methyl-4-(1-naphthalen-2-ylmethyl-piperidin-4-ylamino)-2-oxo-1,2-dihydro-quinoline-3-carboxylic acid dimethylamide]
≥ 50 | CCc1ccc2c(c1)c(NC1CCN(Cc3ccc4occc4c3)CC1)cc(=O)n2C [Compound V-25, 4-(1-Benzofuran-5-ylmethyl-piperidin-4-ylamino)-6-ethyl-1-methyl-1H-quinolin-2-one]
≥ 50 | O=c1cc(NC2CCN(Cc3ccc4occc4c3)CC2)c2cc(Cl)ccc2n1Cc1ccccn1 [Compound V-26, 4-(1-Benzofuran-5-ylimethyl-piperidin-4-ylamino)-6-chloro-1-pyridin-2-ylmethyl-1H-quinolin-2-one]
≥ 50 | N#Cc1c(NC2CCN(Cc3ccc4c(c3)OCO4)CC2)c2cc(Cl)ccc2[nH]c1=O [Compound V-27, 4-(1-Benzo[1,3]dioxol-5-ylmethyl-piperidin-4-ylamino)-6-chloro-2-oxo-1,2-dihydro-quinoline-3-carbonitrile]
≥ 50 | CCc1ccc2c(c1)c(NC1CCN(Cc3ccc4occc4c3)CC1)cc(=O)n2CC [Compound V-28, 4-(1-Benzofuran-5-ylmethyl-piperidin-4-ylamino)-1,6-diethyl-1H-quinolin-2-one]
≥ 50 | Cn1c(=O)cc(NC2CCN(C/C=C/c3ccccc3)CC2)c2cc(Cl)ccc21 [Compound V-29, 6-Chloro-1-methyl-4-[1-(3-phenyl-allyl)-piperidin-4-ylamino]-1H-quinolin-2-one]

The next lines start with the molecule.

Compound | inhibition at 10 µM [%]
O=c1cc(NC2CCN(Cc3ccc4ccccc4c3)CC2)c2cc(Cl)ccc2n1Cc1cccnc1 [Compound V-1, 6-Chloro-4-(1-naphthalen-2-ylmethyl-piperidin-4-ylamino)-1-pyridin-3-ylmethyl-1H-quinolin-2-one] | ≥ 50
O=c1cc(NC2CCN(Cc3ccc4c(c3)OCO4)CC2)c2cc(Cl)ccc2n1Cc1ccccn1 [Compound V-2, 4-(1-Benzo[1,3]dioxol-5-ylmethyl-piperidin-4-ylamino)-6-chloro-1-pyridin-2-ylmethyl-1H-quinolin-2-one] | ≥ 50
O=c1cc(NC2CCN(Cc3ccc4c(c3)OCO4)CC2)c2cc(Cl)ccc2n1Cc1ccccc1 [Compound V-3, 4-(1-Benzo[1,3]dioxol-5-ylmethyl-piperidin-4-ylamino)-1-benzyl-6-chloro-1H-quinolin-2-one] | ≥ 50
O=c1cc(NC2CCN(Cc3ccc4c(c3)OCO4)CC2)c2cc(Cl)ccc2n1Cc1ccncc1 [Compound V-4, 4-(1-Benzo[1,3]dioxol-5-ylmethylpiperidin-4-ylamino)-6-chloro-1-pyridin-4-ylmethyl-1H-quinolin-2-one] | ≥ 50
O=c1cc(NC2CCN(Cc3ccc4ccccc4c3)CC2)c2cc(Cl)ccc2n1Cc1ccncc1 [Compound V-5, 6-Chloro-4-(1-naphthalen-2-ylmethyl-piperidin-4-ylamino)-1-pyridin-4-ylmethyl-1H-quinolin-2-one] | ≥ 50
CCn1c(=O)cc(NC2CCN(Cc3ccc4ccccc4c3)CC2)c2cc(Cl)ccc21 [Compound V-6, 6-Chloro-1-ethyl-4-(1-naphthalen-2-ylmethyl-piperidin-4-ylamino)-1H-quinolin-2-one] | ≥ 50
O=c1cc(NC2CCN(Cc3ccc4c(c3)OCO4)CC2)c2cc(Cl)ccc2n1CC(F)(F)F [Compound V-7, 4-(1-Benzo[1,3]dioxol-5-ylmethylpiperidin-4-ylamino)-6-chloro-1-(2,2,2-trifluoroethyl)-1H-quinolin-2-] | ≥ 50
COc1ccc2c(c1)c(NC1CCN(Cc3ccc4c(c3)OCO4)CC1)cc(=O)n2C [Compound V-8, 4-(1-Benzo[1,3]dioxol-5-ylmethyl-piperidin-4-ylamino)-6-methoxy-1-methyl-1H-quinolin 2-one] | ≥ 50
COc1ccc2c(c1)c(NC1CCN(Cc3ccc4ccccc4c3)CC1)cc(=O)n2C [Compound V-9, 6-Methoxy-1-methyl-4-(1-naphthalen-2-ylmethyl-piperidin-4-ylamino)-1H-quinolin-2-one] | ≥ 50
O=c1cc(NC2CCN(Cc3ccc4occc4c3)CC2)c2cc(Cl)ccc2n1Cc1ccncc1 [Compound V-10, 4-(1-Benzofuran-5-ylmethyl-piperidin-4-ylamino)-6-chloro-1-pyridin-4-ylmethyl-1H-quinolin-2-one] | ≥ 50
O=c1cc(NC2CCN(Cc3ccc4c(c3)OCO4)CC2)c2cc(Cl)ccc2[nH]1 [Compound V-11, 4-(1-Benzo[1,3]dioxol-5-ylmethyl-piperidin-4-ylamino)-6-chloro-1H-quinolin-2-one] | ≥ 50
COc1ccc2c(c1)c(NC1CCN(Cc3ccc4occc4c3)CC1)cc(=O)n2C [Compound V-12, 4-(1-Benzofuran-5-ylmethyl-piperidin-4-ylamino)-6-methoxy-1-methyl-1H-quinolin-2-one] | ≥ 50
CCc1ccc2c(c1)c(NC1CCN(Cc3ccc4c(c3)OCO4)CC1)cc(=O)n2C [Compound V-13, 4-(1-Benzo[1,3]dioxol-5-ylmethyl-piperidin-4-ylamino)-6-ethyl-1-methyl-1H-quinolin-2-one] | ≥ 50
